Article PMC5218480 (PLoS ONE, 2017)

System: MV-4-11 cells
Assay: Gene expression microarray analysis (Affymetrix PrimeView) and GSEA
Format: cell-based, human
Set-up: RFU PODN (11730768_x_at) / Fold change /veh PODN (11730768_x_at) / RFU LINC00158 (11744669_a_at) / Fold change /veh LINC00158 (11744669_a_at) / RFU DUSP10 (11751237_a_at) / Fold change /veh DUSP10 (11751237_a_at) / RFU ID3 (11757404_x_at) / Fold change /veh ID3 (11757404_x_at) / RFU PLEKHG5 (11737974_s_at) / Fold change /veh PLEKHG5 (11737974_s_at) / RFU LRRC4B (11730491_at) / Fold change /veh LRRC4B (11730491_at) / RFU GIMAP4 (11747438_a_at) / Fold change /veh GIMAP4 (11747438_a_at) / RFU KRT8 (11758183_x_at) / Fold change /veh KRT8 (11758183_x_at) / RFU CNN1 (11734310_a_at) / Fold change /veh CNN1 (11734310_a_at) / RFU VPS37D (11726825_at) / Fold change /veh VPS37D (11726825_at) / RFU C10orf10 (11716522_x_at) / Fold change /veh C10orf10 (11716522_x_at) / RFU KIR2DL2 /// KIR2DL4 /// KIR2DL5A /// KIR2DL5B /// KIR2DS1 /// KIR2DS2 /// KIR2DS3 /// KIR2DS4 /// KIR3DL3 /// KIR3DL3 /// KIR3DS1 (11738374_at) / Fold change /veh KIR2DL2 /// KIR2DL4 /// KIR2DL5A /// KIR2DL5B /// KIR2DS1 /// KIR2DS2 /// KIR2DS3 /// KIR2DS4 /// KIR3DL3 /// KIR3DL3 /// KIR3DS1 (11738374_at) / RFU C1QL1 (11718748_at) / Fold change /veh C1QL1 (11718748_at) / RFU TMPRSS4 (11747572_a_at) / Fold change /veh TMPRSS4 (11747572_a_at) / RFU HAMP (11756126_x_at) / Fold change /veh HAMP (11756126_x_at) / RFU RNFT2 (11725882_a_at) / Fold change /veh RNFT2 (11725882_a_at) / RFU NR4A2 (11747474_a_at) / Fold change /veh NR4A2 (11747474_a_at) / RFU ABCC12 (11746883_a_at) / Fold change /veh ABCC12 (11746883_a_at) / RFU TMEM136 (11760407_x_at) / Fold change /veh TMEM136 (11760407_x_at) / RFU CLDN22 /// WWC2 (11732394_at) / Fold change /veh CLDN22 /// WWC2 (11732394_at) / RFU HLA-DPB1 (11760878_x_at) / Fold change /veh HLA-DPB1 (11760878_x_at) / RFU SPINT1 (11716480_a_at) / Fold change /veh SPINT1 (11716480_a_at) / RFU GAP43 (11754022_s_at) / Fold change /veh GAP43 (11754022_s_at) / RFU A4GNT (11735810_at) / Fold change /veh A4GNT (11735810_at) / RFU PRB3 (11715151_x_at) / Fold change /veh PRB3 (11715151_x_at) / RFU TUBB4B (11761932_at) / Fold change /veh TUBB4B (11761932_at) / RFU CAPN14 (11732068_a_at) / Fold change /veh CAPN14 (11732068_a_at) / RFU TMCC2 (11721928_a_at) / Fold change /veh TMCC2 (11721928_a_at) / RFU IRGQ (11745062_a_at) / Fold change /veh IRGQ (11745062_a_at) / RFU FAM174B (11720279_a_at) / Fold change /veh FAM174B (11720279_a_at) / RFU TMPRSS4 (11748680_a_at) / Fold change /veh TMPRSS4 (11748680_a_at) / RFU FAM212B (11763350_a_at) / Fold change /veh FAM212B (11763350_a_at) / RFU PLEKHG5 (11743358_a_at) / Fold change /veh PLEKHG5 (11743358_a_at) / RFU ZSCAN30 (11745921_a_at) / Fold change /veh ZSCAN30 (11745921_a_at) / RFU CMKLR1 (11741424_a_at) / Fold change /veh CMKLR1 (11741424_a_at) / RFU LOC101060620 /// MAPK8IP1 (11723275_at) / Fold change /veh LOC101060620 /// MAPK8IP1 (11723275_at) / RFU SPTSSB (11747773_x_at) / Fold change /veh SPTSSB (11747773_x_at) / RFU PRSS12 (11739890_at) / Fold change /veh PRSS12 (11739890_at) / RFU BIN1 (11741810_x_at) / Fold change /veh BIN1 (11741810_x_at) / RFU WNT11 (11732464_a_at) / Fold change /veh WNT11 (11732464_a_at) / RFU C10orf10 (11716521_a_at) / Fold change /veh C10orf10 (11716521_a_at) / RFU C5orf56 (11738089_at) / Fold change /veh C5orf56 (11738089_at) / RFU CYB561 (11721691_x_at) / Fold change /veh CYB561 (11721691_x_at) / RFU ANKRD19P (11752326_a_at) / Fold change /veh ANKRD19P (11752326_a_at) / RFU OR2T12 /// OR2T33 /// OR2T8 (11738714_s_at) / Fold change /veh OR2T12 /// OR2T33 /// OR2T8 (11738714_s_at) / RFU VCAN (11748164_a_at) / Fold change /veh VCAN (11748164_a_at) / RFU JSRP1 (11732532_at) / Fold change /veh JSRP1 (11732532_at) / RFU KRTAP10-11 (11738290_x_at) / Fold change /veh KRTAP10-11 (11738290_x_at) / RFU MYO3A (11730013_a_at) / Fold change /veh MYO3A (11730013_a_at) / RFU EBF3 (11725865_a_at) / Fold change /veh EBF3 (11725865_a_at) / RFU CAMK2N1 (11719241_x_at) / Fold change /veh CAMK2N1 (11719241_x_at) / RFU C5orf56 (11738088_a_at) / Fold change /veh C5orf56 (11738088_a_at) / RFU OLFML3 (11715873_a_at) / Fold change /veh OLFML3 (11715873_a_at) / RFU LOC100653217 /// NTM (11731650_a_at) / Fold change /veh LOC100653217 /// NTM (11731650_a_at) / RFU MAPK11 (11762145_a_at) / Fold change /veh MAPK11 (11762145_a_at) / RFU FIZ1 (11724087_x_at) / Fold change /veh FIZ1 (11724087_x_at) / RFU OASL (11726364_x_at) / Fold change /veh OASL (11726364_x_at) / RFU SOX15 (11748057_x_at) / Fold change /veh SOX15 (11748057_x_at) / RFU CD79A (11719716_a_at) / Fold change /veh CD79A (11719716_a_at) / RFU HIST1H1D (11736915_at) / Fold change /veh HIST1H1D (11736915_at) / RFU CASKIN2 (11723855_a_at) / Fold change /veh CASKIN2 (11723855_a_at) / RFU LOC730098 (11760151_x_at) / Fold change /veh LOC730098 (11760151_x_at) / RFU OR4N2 (11742367_at) / Fold change /veh OR4N2 (11742367_at) / RFU PRRT2 (11749266_a_at) / Fold change /veh PRRT2 (11749266_a_at) / RFU SNX32 (11753110_a_at) / Fold change /veh SNX32 (11753110_a_at) / RFU CDHR5 (11726645_a_at) / Fold change /veh CDHR5 (11726645_a_at) / RFU RCAN1 (11760418_a_at) / Fold change /veh RCAN1 (11760418_a_at) / RFU FAM167A (11723789_a_at) / Fold change /veh FAM167A (11723789_a_at) / RFU FAM26E (11764081_at) / Fold change /veh FAM26E (11764081_at) / RFU ISYNA1 (11749810_s_at) / Fold change /veh ISYNA1 (11749810_s_at) / RFU ACY1 (11761880_at) / Fold change /veh ACY1 (11761880_at) / RFU 11764098_at / Fold change /veh 11764098_at / RFU SAMD14 (11745864_x_at) / Fold change /veh SAMD14 (11745864_x_at) / RFU NPB (11741838_a_at) / Fold change /veh NPB (11741838_a_at) / RFU TMPRSS6 (11731388_a_at) / Fold change /veh TMPRSS6 (11731388_a_at) / RFU KRTAP10-2 (11738614_at) / Fold change /veh KRTAP10-2 (11738614_at) / RFU ARHGAP8 /// PRR5-ARHGAP8 (11727945_x_at) / Fold change /veh ARHGAP8 /// PRR5-ARHGAP8 (11727945_x_at) / RFU KRTAP5-7 /// NADSYN1 (11734609_at) / Fold change /veh KRTAP5-7 /// NADSYN1 (11734609_at) / RFU RASL12 (11751679_a_at) / Fold change /veh RASL12 (11751679_a_at) / RFU CDKN2B (11736163_a_at) / Fold change /veh CDKN2B (11736163_a_at) / RFU PRF1 (11729649_at) / Fold change /veh PRF1 (11729649_at) / RFU, ZNF638 /// ZNF638-IT1 / Fold change vs veh, ZNF638 /// ZNF638-IT1 / RFU, PANK3 / Fold change vs veh, PANK3 / RFU, SH3YL1 / Fold change vs veh, SH3YL1 / RFU, ZEB2 / Fold change vs veh, ZEB2 / RFU, NRIP1 / Fold change vs veh, NRIP1 / RFU, PTTG1IP / Fold change vs veh, PTTG1IP / RFU, CAPN2 / Fold change vs veh, CAPN2 / RFU, MED14 / Fold change vs veh, MED14 / RFU, SNORA58 / Fold change vs veh, SNORA58 / RFU, C1orf63 / Fold change vs veh, C1orf63 / RFU, LRRFIP1 / Fold change vs veh, LRRFIP1 / RFU, NDUFAF7 / Fold change vs veh, NDUFAF7 / RFU, SLC12A2 / Fold change vs veh, SLC12A2 / RFU, IBTK / Fold change vs veh, IBTK / RFU, ESF1 / Fold change vs veh, ESF1 / Fold change vs veh, TMEM50B / RFU, TAOK1 / Fold change vs veh, TAOK1 / RFU, ACBD3 / Fold change vs veh, ACBD3 / RFU, TMA16 / Fold change vs veh, TMA16 / RFU, RWDD3 / Fold change vs veh, RWDD3 / RFU, BCAT1 / Fold change vs veh, BCAT1 / RFU, EDEM3 / Fold change vs veh, EDEM3 / RFU, TMEM33 / Fold change vs veh, TMEM33 / RFU, WDR75 / Fold change vs veh, WDR75 / RFU, AHCTF1 / Fold change vs veh, AHCTF1 / RFU, TFRC / Fold change vs veh, TFRC / RFU, ZDHHC17 / Fold change vs veh, ZDHHC17 / RFU, NOM1 / Fold change vs veh, NOM1 / RFU, ARL8B / Fold change vs veh, ARL8B / RFU, ZBTB11 / Fold change vs veh, ZBTB11 / RFU, TAMM41 / Fold change vs veh, TAMM41 / RFU, KIAA1704 /// LOC100996395 / Fold change vs veh, KIAA1704 /// LOC100996395 / RFU, ING1 / Fold change vs veh, ING1 / RFU, TRMT61B / Fold change vs veh, TRMT61B / RFU, FUBP3 / Fold change vs veh, FUBP3 / RFU, TP53 / Fold change vs veh, TP53 / RFU, TNKS2 / Fold change vs veh, TNKS2 / RFU, ZFP14 / Fold change vs veh, ZFP14 / RFU, ACTR2 / Fold change vs veh, ACTR2 / RFU, PPP3R1 / Fold change vs veh, PPP3R1 / RFU, PIK3R1 / Fold change vs veh, PIK3R1 / RFU, HNRNPA1 / Fold change vs veh, HNRNPA1 / RFU, RNF170 / Fold change vs veh, RNF170 / RFU, ZNF28 / Fold change vs veh, ZNF28 / RFU, RNGTT / Fold change vs veh, RNGTT / RFU, OGT / Fold change vs veh, OGT / RFU, BRD1 / Fold change vs veh, BRD1 / RFU, MARS / Fold change vs veh, MARS / RFU, ZNF655 / Fold change vs veh, ZNF655 / RFU, FAHD1 / Fold change vs veh, FAHD1 / RFU, BDP1 / Fold change vs veh, BDP1 / RFU, LRRCC1 / Fold change vs veh, LRRCC1 / RFU, ARID1A / Fold change vs veh, ARID1A / RFU, ZNF146 / Fold change vs veh, ZNF146 / RFU, ZNF330 / Fold change vs veh, ZNF330 / RFU, GPN3 / Fold change vs veh, GPN3 / RFU, C9orf123 / Fold change vs veh, C9orf123 / RFU, N4BP2L2 / Fold change vs veh, N4BP2L2 / RFU, ARFIP1 / Fold change vs veh, ARFIP1 / RFU, FAM179B / Fold change vs veh, FAM179B / RFU, BCL10 / Fold change vs veh, BCL10 / RFU, UHRF1BP1L / Fold change vs veh, UHRF1BP1L / RFU, BET1 / Fold change vs veh, BET1 / RFU, CNOT2 / Fold change vs veh, CNOT2 / RFU, ZNF268 / Fold change vs veh, ZNF268 / Fold change vs veh, ZNF507 / RFU, DGCR2 / Fold change vs veh, DGCR2 / RFU, WDSUB1 / Fold change vs veh, WDSUB1 / Fold change vs veh, HSP90B1 /// MIR3652 / RFU, ADSS / Fold change vs veh, ADSS / RFU, GK / Fold change vs veh, GK / RFU, ZNF148 / Fold change vs veh, ZNF148 / RFU, TAF9 / Fold change vs veh, TAF9 / RFU, SLC1A5 / Fold change vs veh, SLC1A5 / RFU, SLMO2 / Fold change vs veh, SLMO2 / RFU, ABCC4 / Fold change vs veh, ABCC4 / RFU, LOC101060439 /// RAP1B / Fold change vs veh, LOC101060439 /// RAP1B / RFU, RFX7 / Fold change vs veh, RFX7 / RFU, GTPBP10 / Fold change vs veh, GTPBP10 / RFU, CNEP1R1 / Fold change vs veh, CNEP1R1 / RFU, BIVM-ERCC5 /// ERCC5 / Fold change vs veh, BIVM-ERCC5 /// ERCC5 / RFU, ILF3 / Fold change vs veh, ILF3 / RFU 11762660_at / Fold change /veh 11762660_at / RFU VCAN (11757783_s_at) / Fold change /veh VCAN (11757783_s_at) / RFU DDX43 (11728927_at) / Fold change /veh DDX43 (11728927_at) / RFU KRT8 (11758188_x_at) / Fold change /veh KRT8 (11758188_x_at) / RFU NKD1 (11759106_at) / Fold change /veh NKD1 (11759106_at) / RFU SRD5A1 (11742802_a_at) / Fold change /veh SRD5A1 (11742802_a_at) / RFU TPSAB1 /// TPSB2 (11721975_s_at) / Fold change /veh TPSAB1 /// TPSB2 (11721975_s_at) / RFU GSTM3 (11746129_a_at) / Fold change /veh GSTM3 (11746129_a_at) / RFU IL23R (11737362_x_at) / Fold change /veh IL23R (11737362_x_at) / RFU TMEM51 (11727254_a_at) / Fold change /veh TMEM51 (11727254_a_at) / RFU PIWIL2 (11732686_x_at) / Fold change /veh PIWIL2 (11732686_x_at) / RFU ORM1 (11744905_x_at) / Fold change /veh ORM1 (11744905_x_at) / RFU CCDC152 (11743942_at) / Fold change /veh CCDC152 (11743942_at) / RFU ECM1 (11717891_a_at) / Fold change /veh ECM1 (11717891_a_at) / RFU IL23R (11748794_a_at) / Fold change /veh IL23R (11748794_a_at) / RFU TNFAIP8L3 (11732012_x_at) / Fold change /veh TNFAIP8L3 (11732012_x_at) / RFU MBOAT4 (11741988_at) / Fold change /veh MBOAT4 (11741988_at) / RFU 11764193_at / Fold change /veh 11764193_at / RFU TMEM53 (11763286_at) / Fold change /veh TMEM53 (11763286_at) / RFU MAGEB2 (11727129_at) / Fold change /veh MAGEB2 (11727129_at) / RFU TMEM200A (11744735_a_at) / Fold change /veh TMEM200A (11744735_a_at) / RFU CCDC152 (11751479_a_at) / Fold change /veh CCDC152 (11751479_a_at) / RFU FAM211A (11726209_a_at) / Fold change /veh FAM211A (11726209_a_at) / RFU RGS16 (11746705_a_at) / Fold change /veh RGS16 (11746705_a_at) / RFU VCAN (11755009_s_at) / Fold change /veh VCAN (11755009_s_at) / RFU RHOB (11743442_s_at) / Fold change /veh RHOB (11743442_s_at) / RFU RGS16 (11720943_a_at) / Fold change /veh RGS16 (11720943_a_at) / RFU RGS16 (11720944_at) / Fold change /veh RGS16 (11720944_at) / RFU, VPS4B / Fold change vs veh, VPS4B / RFU, CREB1 / Fold change vs veh, CREB1 / RFU, DNAJC13 / Fold change vs veh, DNAJC13 / RFU, GNAQ / Fold change vs veh, GNAQ / RFU, CDK5R1 / Fold change vs veh, CDK5R1 / RFU, ZRANB3 / Fold change vs veh, ZRANB3 / RFU, CUL4A / Fold change vs veh, CUL4A / RFU, CCNY / Fold change vs veh, CCNY / RFU, UFL1 / Fold change vs veh, UFL1 / RFU, COG3 / Fold change vs veh, COG3 / RFU, DIAPH2 / Fold change vs veh, DIAPH2 / RFU, SKA2 / Fold change vs veh, SKA2 / RFU, AFF3 / Fold change vs veh, AFF3 / RFU, LMF1 / Fold change vs veh, LMF1 / RFU, IPO11 / Fold change vs veh, IPO11 / RFU, DFFB / Fold change vs veh, DFFB / RFU, FOXP1 / Fold change vs veh, FOXP1 / RFU, CARD8 / Fold change vs veh, CARD8 / RFU, STRN3 / Fold change vs veh, STRN3 / RFU, ADK / Fold change vs veh, ADK / RFU, RASSF2 / Fold change vs veh, RASSF2 / RFU, WIPF1 / Fold change vs veh, WIPF1 / RFU, LARP1B / Fold change vs veh, LARP1B / RFU, RASA1 / Fold change vs veh, RASA1 / RFU, RB1 / Fold change vs veh, RB1 / RFU, PPFIA1 / Fold change vs veh, PPFIA1 / RFU, MAT2A / Fold change vs veh, MAT2A / RFU, CCT5 / Fold change vs veh, CCT5 / RFU, WDR92 / Fold change vs veh, WDR92 / RFU, CUX1 / Fold change vs veh, CUX1 / RFU, TTC7A / Fold change vs veh, TTC7A / RFU, TMEM135 / Fold change vs veh, TMEM135 / RFU, DEPTOR / Fold change vs veh, DEPTOR / RFU, CPM / Fold change vs veh, CPM / RFU, DNAJB6 / Fold change vs veh, DNAJB6 / RFU, CACNA2D3 / Fold change vs veh, CACNA2D3 / RFU, DTX4 / Fold change vs veh, DTX4 / RFU, TFCP2 / Fold change vs veh, TFCP2 / RFU, GMCL1 /// GMCL1P1 / Fold change vs veh, GMCL1 /// GMCL1P1 / RFU, AEBP2 / Fold change vs veh, AEBP2 / RFU, SNHG1 /// SNORD22 /// SNORD25 /// SNORD26 /// SNORD27 /// SNORD28 /// SNORD29 /// SNORD31 / Fold change vs veh, SNHG1 /// SNORD22 /// SNORD25 /// SNORD26 /// SNORD27 /// SNORD28 /// SNORD29 /// SNORD31 / Fold change (Aza/veh), C12orf56 (ProbeSet 11735607_a_at) / Fold change (ACY-1035/veh), C12orf56 (ProbeSet 11735607_a_at) / Fold change (Aza/veh), FGFR1OP (ProbeSet 11751329_s_at) / Fold change (ACY-1035/veh), FGFR1OP (ProbeSet 11751329_s_at) / Fold change (Aza/veh), VPS36 (ProbeSet 11739960_a_at) / Fold change (ACY-1035/veh), VPS36 (ProbeSet 11739960_a_at) / RFU SYPL1 (11715823_x_at) / Fold change /veh SYPL1 (11715823_x_at) / RFU IGFBP7 (11715501_s_at) / Fold change /veh IGFBP7 (11715501_s_at) / RFU REEP3 (11722064_at) / Fold change /veh REEP3 (11722064_at) / RFU IGLL1 (11728026_x_at) / Fold change /veh IGLL1 (11728026_x_at): dose or concentration left out as unconfirmed
Conditions: ProbeSet 11728879_at; LIST B

Compound: Nc1ccc(-c2cccs2)cc1NC(=O)c1ccc2c(c1)cc(C1CC1)n2CCN1CCOCC1 [ACY-1035]
- RFU, PPP3R1: 371.71 RFU
